From paper PMC5772648, “Targeted NUDT5 inhibitors block hormone signaling in breast cancer cells” (Nature Communications, 2018)

Tests used:
[1] = target: T1, NUDT5 in HL-60 cell lysates (Homo sapiens, UniProt Q9UKK9); experiment: cell lysate CETSA (HT-CETSA); assay type: binding; details: 20 µM, 83 °C
T1 construct: endogenous in cells; host or cells: HL-60
Description: Target engagement in cells was determined by the cellular thermal shift assay (CETSA)[29]. Briefly, cell lysate thermal shift assays were performed with 1 × 10^6 HL-60 cells per temperature/condition. Cells were collected and washed once with PBS and resuspended in TBS with protease inhibitor cocktail (Mini cOmplete, EDTA-free, Roche) at 60 µL/1 × 10^6 cells. The cells were then aliquoted and lysed by freeze-thawing three times with 3-min incubations (3x, 3 min.+3 min.) using an ethanol/dry ice bath and water bath at 37 °C. The lysates were then centrifuged at 20,000×g for 20 min at 4 °C to remove cellular debris. Supernatants were then transferred to PCR strip tubes and treated with 0.5 µL DMSO (0.8% v/v final) or 20 µM inhibitor for 20 min at room temperature. Lysates with compounds were heated at the indicated temperature in a Veriti Thermal Cycler (Applied Biosystems) for 3 min, then cooled for another 3 min at room temperature. They were then centrifuged at 20 000 × g for 20 min at 4 °C to pellet protein aggregates and 45 µL was removed and prepared for western blotting analysis.

[2] = target: T2, NUDT5 in intact HL-60 cells (Homo sapiens, UniProt Q9UKK9); experiment: intact cell CETSA; assay type: cell-based; details: 20 µM, 83 °C
T2 construct: endogenous in cells; host or cells: HL-60
Description: For CETSA experiments with cells treated in culture, 1 × 10^6 HL-60 were treated with DMSO (0.1 % v/v final) or 20 µM compound for 3 h at 37 °C and 5% CO2 in a humidified incubator. T47D^WT cells were treated instead with 80 µM TH1659, 15 µM TH5423/5424 and 1.5 µM TH5427. The cells were harvested, washed twice with PBS and resuspended in TBS with protease inhibitors, as above. Heating was identical as before, except that immediately following heating, the cell suspensions were snap frozen in a dry ice/ethanol bath and freeze-thawed, as previously, to lyse cells. Centrifugation at 20 000 × g for 20 min at 4 °C removed cellular debris and protein aggregates, and lysates were prepared for western blotting.

[3] = test system: histone H1 displacement in T47D cells; experiment: histone H1 displacement by chromatin immunoprecipitation after R5020; assay type: cell-based; details: 30 min R5020
Description: For hormone and inhibitor treatments, normal T47D^WT cells or cells containing a single copy of luciferase under the control of the mouse mammary tumor virus (MMTV) promoter (T47D^M) were used[23]. Prior to hormone induction, cells were grown in phenol red-free RPMI medium supplemented with 10% dextran-coated charcoal-treated FBS (DCC/FBS). After 16 h in serum-free conditions, cells were pre-incubated with DMSO (vehicle) or NUDT5 inhibitor for 2 h at the indicated dose before addition of R5020 (10 nM) or vehicle (ethanol, EtOH) for the allotted time.
ChIP assays were performed using a histone H1-specific antibody, AE4 (Abcam)[54]. 1 × 10^7 T47D^M cells (plated and treated with hormone and/or inhibitor, as described above) were cross-linked for 10 min with 1% formaldehyde. Lysates were sonicated (Biorupter sonicator, Diagenode) resulting in DNA fragments with a size range of 200-300 bp. […] The resultant eluted DNA was quantified by Qubit 3.0 Fluorometer (Life Technologies) and qPCR (LightCycler FastStart DNA Master SYBR Green I, Roche). The fold enrichment of target sequences in the immunoprecipitated (IP) compared to input (I) fractions were calculated using the comparative Ct method (2^Ct(IP)−Ct(I)). […]

Structure (SMILES)	NUDT5 stabilization in cell lysates [1]	NUDT5 stabilization in intact cells [2]	histone H1 displacement after R5020 ([3]; 15 µM)	histone H1 displacement after R5020 ([3]; 1.5 µM)
CCN1CCN(c2nc3c(c(=O)n(C)c(=O)n3C)n2Cc2nnc(-c3ccc(Cl)c(Cl)c3)o2)CC1 [TH5424]	showed the most stabilization of NUDT5 in cell lysates	stabilized NUDT5 to nearly the same levels as observed in the 37 °C DMSO control	moderate effects	–
Cn1c(=O)c2c(nc(N3CCNCC3)n2Cc2nnc(-c3ccc(Cl)c(Cl)c3)o2)n(C)c1=O [TH5427]	showed the most stabilization of NUDT5 in cell lysates	stabilized NUDT5 to nearly the same levels as observed in the 37 °C DMSO control	–	inhibited histone H1 displacement
